{"source": "paper PMC12238723", "about": "“Phase I Clinical Trial of CVL218, a Novel PARP1/2 Inhibitor, in Patients with Advanced Solid Tumors” (MedComm, 2025)", "assay": "Plasma PK after multiple oral doses (Cycle 1 Day 28)", "format": "in vivo, patients", "method": "The period during which patients received a single dose is designated as cycle 0 (C0), lasting 72 h. After this period, patients begin multiple dosing, referred to as cycle 1 (C1). An initial accelerated titration design was employed for the three lowest dose groups, and the “3+3” design was applied starting with the 300 mg BID cohort. […] Single-dose and multiple-dose PK parameters included C max, T max, elimination half-life (T 1/2), AUC0- t , AUC0-inf, oral clearance (CL/F), and apparent volume of distribution (V z/F) for CVL218. Tumor response was assessed per RECIST 1.1. ORR was defined as proportion of patients with a CR or PR on at least one visit, while DCR was defined as proportion of patients with a CR or PR or SD. PFS was defined as the time from the first dose of either drug to investigator assessed radiologic PD or to death of any cause. PFS would be censored at the time of last tumor assessment. Subjects who received at least one dose of CVL218 with postadministration safety records were included in safety analysis set. Subjects who received at least one dose of CVL218 with at least one evaluable PK parameter were included in PK analysis set. Per-protocol set were used for efficacy analysis. Descriptive statistics of safety were presented per CTCAE v5.0. The PK parameters T max and T 1/2 were shown as the median (min, max) and mean ± SD, respectively. A two-sided p < 0.05 was considered to indicate statistical significance. Statistical analysis was performed by using GraphPad prism 8.0.2 and R-4.3.3.", "key": {"[1]": {"conditions": "multiple doses C1D28, 50mg BID, n 1"}, "[2]": {"conditions": "multiple doses C1D28, 100mg BID, n 1"}, "[3]": {"conditions": "multiple doses C1D28, 200mg BID, n 1"}, "[4]": {"conditions": "multiple doses C1D28, 350mg BID, n 4"}, "[5]": {"conditions": "multiple doses C1D28, 500mg BID, n 4"}, "[6]": {"conditions": "multiple doses C1D28, 600mg BID, n 4"}, "[7]": {"conditions": "multiple doses C1D28, 700mg BID, n 6"}, "[8]": {"conditions": "multiple doses C1D28, 850mg BID, n 5"}}}
{"smiles": "CNCc1ccc(-c2cc3cc(F)cc(C(N)=O)c3o2)cc1.Cl", "note": "[CVL218]", "values": [{"measurement": "AUC0-24, Geometric Mean", "setting": "[1]", "value": 0.0709, "unit": "µg·h/mL"}, {"measurement": "AUC0-t, Geometric Mean", "setting": "[1]", "value": 0.0779, "unit": "µg·h/mL"}, {"measurement": "AUC_TAU, Mean", "setting": "[1]", "value": 0.0709, "unit": "µg·h/mL"}, {"measurement": "Cavgss, Mean", "setting": "[1]", "value": 0.00591, "unit": "µg/mL"}, {"measurement": "Cl/F, Geometric Mean", "setting": "[1]", "value": 705000.0, "unit": "mL/h"}, {"measurement": "Cmax, Geometric Mean", "setting": "[1]", "value": 0.0156, "unit": "µg/mL"}, {"measurement": "Cminss, Mean", "setting": "[1]", "value": 0, "unit": "µg/mL"}, {"measurement": "Vz/F, Geometric Mean", "setting": "[1]", "value": 6870000.0, "unit": "mL"}, {"measurement": "AUC0-24, Geometric Mean", "setting": "[2]", "value": 0.822, "unit": "µg·h/mL"}, {"measurement": "AUC0-t, Geometric Mean", "setting": "[2]", "value": 1.93, "unit": "µg·h/mL"}, {"measurement": "AUC_TAU, Mean", "setting": "[2]", "value": 0.822, "unit": "µg·h/mL"}, {"measurement": "Cavgss, Mean", "setting": "[2]", "value": 0.0685, "unit": "µg/mL"}, {"measurement": "Cl/F, Geometric Mean", "setting": "[2]", "value": 122000.0, "unit": "mL/h"}, {"measurement": "Cmax, Geometric Mean", "setting": "[2]", "value": 0.148, "unit": "µg/mL"}, {"measurement": "Cminss, Mean", "setting": "[2]", "value": 0.038, "unit": "µg/mL"}, {"measurement": "Vz/F, Geometric Mean", "setting": "[2]", "value": 1750000.0, "unit": "mL"}, {"measurement": "AUC0-24, Geometric Mean", "setting": "[3]", "value": 0.808, "unit": "µg·h/mL"}, {"measurement": "AUC0-t, Geometric Mean", "setting": "[3]", "value": 1.36, "unit": "µg·h/mL"}, {"measurement": "AUC_TAU, Mean", "setting": "[3]", "value": 0.808, "unit": "µg·h/mL"}, {"measurement": "Cavgss, Mean", "setting": "[3]", "value": 0.0673, "unit": "µg/mL"}, {"measurement": "Cl/F, Geometric Mean", "setting": "[3]", "value": 248000.0, "unit": "mL/h"}, {"measurement": "Cmax, Geometric Mean", "setting": "[3]", "value": 0.156, "unit": "µg/mL"}, {"measurement": "Cminss, Mean", "setting": "[3]", "value": 0.0286, "unit": "µg/mL"}, {"measurement": "Vz/F, Geometric Mean", "setting": "[3]", "value": 4780000.0, "unit": "mL"}, {"measurement": "AUC0-24, Geometric Mean", "setting": "[4]", "value": 2.23, "unit": "µg·h/mL"}, {"measurement": "AUC0-inf, Geometric Mean", "setting": "[4]", "value": 5.86, "unit": "µg·h/mL"}, {"measurement": "AUC0-t, Geometric Mean", "setting": "[4]", "value": 4.75, "unit": "µg·h/mL"}, {"measurement": "AUC_TAU, Mean", "setting": "[4]", "value": 2.17, "unit": "µg·h/mL"}, {"measurement": "Cavgss, Mean", "setting": "[4]", "value": 0.181, "unit": "µg/mL"}, {"measurement": "Cl/F, Geometric Mean", "setting": "[4]", "value": 157000.0, "unit": "mL/h"}, {"measurement": "Cmax, Geometric Mean", "setting": "[4]", "value": 0.313, "unit": "µg/mL"}, {"measurement": "Cminss, Mean", "setting": "[4]", "value": 0.0722, "unit": "µg/mL"}, {"measurement": "T1/2, Mean", "setting": "[4]", "value": 5.4, "unit": "h"}, {"measurement": "Vz/F, Geometric Mean", "setting": "[4]", "value": 1400000.0, "unit": "mL"}, {"measurement": "AUC0-24, Geometric Mean", "setting": "[5]", "value": 3.21, "unit": "µg·h/mL"}, {"measurement": "AUC0-inf, Geometric Mean", "setting": "[5]", "value": 6.92, "unit": "µg·h/mL"}, {"measurement": "AUC0-t, Geometric Mean", "setting": "[5]", "value": 6.83, "unit": "µg·h/mL"}, {"measurement": "AUC_TAU, Mean", "setting": "[5]", "value": 3.87, "unit": "µg·h/mL"}, {"measurement": "Cavgss, Mean", "setting": "[5]", "value": 0.323, "unit": "µg/mL"}, {"measurement": "Cl/F, Geometric Mean", "setting": "[5]", "value": 158500.0, "unit": "mL/h"}, {"measurement": "Cmax, Geometric Mean", "setting": "[5]", "value": 0.5625, "unit": "µg/mL"}, {"measurement": "Cminss, Mean", "setting": "[5]", "value": 0.177, "unit": "µg/mL"}, {"measurement": "T1/2, Mean", "setting": "[5]", "value": 4.1, "unit": "h"}, {"measurement": "Vz/F, Geometric Mean", "setting": "[5]", "value": 1380000.0, "unit": "mL"}, {"measurement": "AUC0-24, Geometric Mean", "setting": "[6]", "value": 1.88, "unit": "µg·h/mL"}, {"measurement": "AUC0-inf, Geometric Mean", "setting": "[6]", "value": 7.7, "unit": "µg·h/mL"}, {"measurement": "AUC0-t, Geometric Mean", "setting": "[6]", "value": 2.56, "unit": "µg·h/mL"}, {"measurement": "AUC_TAU, Mean", "setting": "[6]", "value": 2.81, "unit": "µg·h/mL"}, {"measurement": "Cavgss, Mean", "setting": "[6]", "value": 0.234, "unit": "µg/mL"}, {"measurement": "Cl/F, Geometric Mean", "setting": "[6]", "value": 318000.0, "unit": "mL/h"}, {"measurement": "Cmax, Geometric Mean", "setting": "[6]", "value": 0.311, "unit": "µg/mL"}, {"measurement": "Cminss, Mean", "setting": "[6]", "value": 0.118, "unit": "µg/mL"}, {"measurement": "T1/2, Mean", "setting": "[6]", "value": 5.1, "unit": "h"}, {"measurement": "Vz/F, Geometric Mean", "setting": "[6]", "value": 2440000.0, "unit": "mL"}, {"measurement": "AUC0-24, Geometric Mean", "setting": "[7]", "value": 3.83, "unit": "µg·h/mL"}, {"measurement": "AUC0-inf, Geometric Mean", "setting": "[7]", "value": 4.17, "unit": "µg·h/mL"}, {"measurement": "AUC0-t, Geometric Mean", "setting": "[7]", "value": 3.83, "unit": "µg·h/mL"}, {"measurement": "AUC_TAU, Mean", "setting": "[7]", "value": 4.45, "unit": "µg·h/mL"}, {"measurement": "Cavgss, Mean", "setting": "[7]", "value": 0.371, "unit": "µg/mL"}, {"measurement": "Cl/F, Geometric Mean", "setting": "[7]", "value": 183000.0, "unit": "mL/h"}, {"measurement": "Cmax, Geometric Mean", "setting": "[7]", "value": 0.66, "unit": "µg/mL"}, {"measurement": "Cminss, Mean", "setting": "[7]", "value": 0.127, "unit": "µg/mL"}, {"measurement": "T1/2, Mean", "setting": "[7]", "value": 3.9, "unit": "h"}, {"measurement": "Vz/F, Geometric Mean", "setting": "[7]", "value": 1090000.0, "unit": "mL"}, {"measurement": "AUC0-24, Geometric Mean", "setting": "[8]", "value": 5.15, "unit": "µg·h/mL"}, {"measurement": "AUC0-inf, Geometric Mean", "setting": "[8]", "value": 2.94, "unit": "µg·h/mL"}, {"measurement": "AUC0-t, Geometric Mean", "setting": "[8]", "value": 5.15, "unit": "µg·h/mL"}, {"measurement": "AUC_TAU, Mean", "setting": "[8]", "value": 5.15, "unit": "µg·h/mL"}, {"measurement": "Cavgss, Mean", "setting": "[8]", "value": 0.429, "unit": "µg/mL"}, {"measurement": "Cl/F, Geometric Mean", "setting": "[8]", "value": 230000.0, "unit": "mL/h"}, {"measurement": "Cmax, Geometric Mean", "setting": "[8]", "value": 0.776, "unit": "µg/mL"}, {"measurement": "Cminss, Mean", "setting": "[8]", "value": 0.194, "unit": "µg/mL"}, {"measurement": "T1/2, Mean", "setting": "[8]", "value": 4.4, "unit": "h"}, {"measurement": "Vz/F, Geometric Mean", "setting": "[8]", "value": 1532500.0, "unit": "mL"}, {"measurement": "median Tmax", "setting": "multiple doses, range over cohorts", "value": "1 to 3", "unit": "h"}, {"measurement": "mean half-life", "setting": "multiple oral doses, range over cohorts", "value": "3.9 to 5.4", "unit": "h"}, {"measurement": "median Tmax", "setting": "recommended dose of 700 mg BID", "value": 2, "unit": "h"}]}
